In patent US20160287621A1, “BIOLOGICAL PRODUCTION OF NAD PRECURSORS AND ANALOGS” (PRESIDENT AND FELLOWS OF HARVARD COLLEGE, priority 2013, published 2016):

Legend:
[1] = cigarette smokers, small clinical trial; cited from earlier work
[2] = tested on: Human dermal fibroblasts (HDFa); experiment: NAD+ levels in human dermal fibroblasts treated for 24 hrs; type: cell-based
Protocol: A and B) Human dermal fibroblasts (HDFa) were treated with various concentration of NMN extract or pure NMN from Sigma (St. Louis, Mo.) respectively for 24 hrs and NAD+ levels were determined.
A) and B) Human dermal fibroblasts (HDFa) were treated with 50 μM of pure NMN and different concentration of Folate or S-adenosyl-L-methionine (SAM) respectively for 24 hrs and NAD^+ levels were determined.
The effect of pure NMN and partially purified NMN extract on the NAD^+ level in cells was investigated. Briefly, human dermal fibroblasts (HDFa) were treated with varying concentrations of NMN extract or pure NMN for 24 hours and NAD^+ levels were determined. Pure NMN was obtained from Sigma. Partially purified NMN extract was obtained using the methods described above.

Cc1nc(-c2cccnc2)sc1C(=O)Nc1ccccc1-c1cn2c(CN3CCOCC3)csc2n1 [SRT2104]
serum lipid profile (total cholesterol, LDL and triglycerides) [1]: improved the serum lipid profile

C[S+](CC[C@H](N)C(=O)O)C[C@H]1O[C@@H](n2cnc3c(N)ncnc32)[C@H](O)[C@@H]1O (stereo partly drawn) [SAM, S-adenosyl-L-methionine]
effect for raising NAD+ levels in combination with NMN ([2]; 50 μM pure NMN plus different concentrations of Folate or SAM, 24 hrs): synergistic effect

NC(=O)c1ccc[n+]([C@@H]2O[C@H](COP(=O)([O-])O)[C@@H](O)[C@H]2O)c1 [Pure NMN, nicotinamide mononucleotide]
NAD+ levels in cells ([2]; varying concentrations, 24 hours): increased levels of NAD^+
